Here are results for one compound from patent US11957684B2, “Treatment of heavy menstrual bleeding associated with uterine fibroids” (Sumitomo Pharma Switzerland GmbH, priority 2016, dated 2024).

This data set can be described thus: clinical. To be noted: female, human, in vivo. On the procedure:
The study was a phase 1, double-blind, randomized, placebo-controlled, sequential-panel, ascending single- and multiple-dose study in healthy premenopausal women. Ten groups, each of 12 healthy premenopausal, adult women, participated in the study (Cohorts 1 to 10).
Cohorts 1 to 6 were referred to as the single-rising dose (SRD) portion of the study, where cohorts were dosed in an escalating fashion. All subjects in a given cohort received their dose of study medication on the same day with the exception of subjects in Cohort 1, which were split into 2 subcohorts (Cohorts 1a and 1b). Dosing between these 2 subcohorts was separated by a minimum of 2 days. Dosing between subsequent cohorts was separated by a minimum of 7 days. The decision to proceed to Cohort 1b was made by the investigator after a minimum 48-hour evaluation of subjects in Cohort 1a. The decision to escalate the dose for the remaining cohorts in the SRD portion was based on review of the safety and pharmacokinetic data for all subjects in the previous cohort.
Subjects were required to fast overnight (minimum 10 hours) prior to dosing and continued to fast for 4 hours following dosing. Subjects were given a menu for the dosing period to include 2 meals and an evening snack, each containing approximately 25% fat content. Six ascending dose groups were planned: 1.0 mg (Cohort 1), 5.0 mg (Cohort 2), 10 mg (Cohort 3), 20 mg (Cohort 4), 40 mg (Cohort 5), and 80 mg (Cohort 6). Subjects in each of Cohorts 1a, 1b, 2, 3, 4, 5 and 6 received drug dosing on a single day only.
Cohorts 1 to 7 were each composed of 12 healthy premenopausal women aged 18 to 49 years, inclusive. […] In one sequence, dosing was under fasting conditions (minimum 10 hours). In the other sequence, dosing was approximately 30 minutes after the start of a high-fat, high calorie breakfast (provided approximately 1000 calories, with 50% of the calories from fat).
Cohorts 8 to 10 were each composed of 12 healthy premenopausal women aged 18 to 45 years, inclusive. Cohorts 8 to 10 were referred to as the multiple-rising dose (MRD) portion of the study, where cohorts were dosed in escalating fashion. The MRD portion was not started until all the blinded safety and pharmacokinetic data from the SRD cohorts had been assessed by the investigator and the sponsor. […] Subjects received the first dose of study medication (Day 1) within 2 to 7 days following the onset of their menstrual cycle. Three ascending dose groups were planned: 10 mg once-daily (QD) (Cohort 8), 20 mg QD (Cohort 9), and 40 mg QD (Cohort 10). Subjects in each of Cohorts 8 to 10 received drug dosing on 14 days (Days 1 to 14).
Subjects had to drink all of the water provided with the dose of study drug. Subjects were able to consume water ad libitum with the exception of 1 hour prior to and 1 hour after drug administration, not including the 240 mL of water taken with dosing.
To assess the food effect, an analysis of variance was performed using Cohort 7 log(mean Cmax), log(area under the plasma drug concentration-time curves [mean plasam AUCs]) as dependent variable; treatment, sequence, period as fixed effects; and subject (seq) as a random effect.

Bounds are passed on as bounds.

With `CONC(=O)Nc1ccc(-c2sc3c(c2CN(C)C)c(=O)n(-c2ccc(OC)nn2)c(=O)n3Cc2c(F)cccc2F)cc1` [Compound 1, N-(4-(1-(2,6-difluorobenzyl)-5-((dimethylamino)methyl)-3-(6-methoxy-3-pyridazinyl)-2,4-dioxo-1,2,3,4-tetrahydrothieno[2,3-d]pyrimidin-6-yl)phenyl)-N′-methoxyurea], the CL renal was 95 to 138 mL/min; the “Tmax, all subjects” value was at most 2 h; the half-life is 14 to 16 h; the “mean Fe (fraction of dose excreted in urine)” value is given as “less than 3%”. For the same compound, the “median Tmax” value fell in the range of 1 to 1.48 h. The compound also gave a half-life (1 mg) of around 6 h. Besides, under “80 mg, median Tmax”, the Tmax was 4 h.
